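Cells were grown in 96-well plates and exposed to each compound for 48 hours at five concentrations; endpoints were interpolated linearly between bracketing concentrations, or set to the highest concentration if not reached. GI50 = concentration required for 50% inhibition of growth.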 Calls of active or inactive are those of the source. Cut-off read from the data, not from the text of the source: active = GI50 up to about 1.1 µM and inactive = higher. Where a SMILES comes first, the peptide text is derived from it. The star is where a group is joined. Boc = CC(C)(C)OC(=O)*

Common to all, as to assay: NCI tumour cell line growth inhibition, 48 h
The subject of test [1] is A549.
The test system of test [2] is CAKI-1.
The subject of test [3] is COLO 205.
For test [4], the system named is HCT-15.
Test [5] concerns HOP-92.
The subject of test [6] is K562.
Test [7] has as its system MOLT-4.
For test [8], the system named is Malme-3M.
The test system of test [9] is NCI-H460.
Test [10] relates to NCI-H522.
Test [11] concerns OVCAR-3.
Test [12] concerns RPMI-8226.
The subject of test [13] is SF-268.
Test [14] has as its system SK-MEL-28.
Test [15] has as its system SK-MEL-5.
Test [16] deals with UACC-257.
The subject of test [17] is KM12.
In test [18] the test system is NCI-H23.
For test [19], the system named is NCI/ADR-RES.

Consider `CC(C)(C)OC(=O)NC(Cc1ccccc1)C(=O)N1CCCC1C(N)=O` (stereo not drawn) (Boc-Phe-Pro-NH2; configuration not given here), for which the GI50 in test [1] was > 100 µM (inactive); in test [2], 9.29 µM (inactive); in [3] it was > 100 µM (inactive); in test [4] it was greater than 100 µM; in [5] it was 1.74 µM (inactive); in test [6], > 100 µM (inactive). Also, the GI50 in test [7], in [8], in [9], in test [10], in test [11] and in [12] was > 100 µM (inactive) each time. Further, the GI50 in test [13], in [14], in test [15] and in [16] was > 100 µM (inactive) in each case.

As to `CCCN(CCC)c1cc2c(cc1F)c(=O)c(C(=O)O)cn2-c1ccc(N2CCN(C)CC2)cn1`, the GI50 in [1] is 16.1 µM (inactive); in [2], 15.3 µM (inactive); in [3], 13.4 µM (inactive); in test [4] it was 22.9 µM; in test [5] it was 13 µM (inactive); in test [6], 17.8 µM (inactive). Also, the GI50 in [17] was 15.1 µM (inactive); in test [7] it was 16.2 µM (inactive); in test [8], 13.3 µM (inactive); in [18], 16.7 µM (inactive); in [9] it was 17.5 µM (inactive); in test [10] it was 11.5 µM (inactive). Further, the GI50 was 17.6 µM (inactive) in test [19]; 15.7 µM (inactive) in test [11]; 17.7 µM (inactive) in test [12]; 15.6 µM (inactive) in [13]; 19.6 µM (inactive) in test [14]; 20.2 µM (inactive) in [16].

Consider `Cc1ccc(N2C(=O)/C(=C3\SC(C(N)=O)=C(N)N3c3ccccc3)SC2=S)cc1`, for which the GI50 in test [1] was > 100 µM (inactive); in [3], > 100 µM (inactive); in test [5] it was 12.1 µM (inactive); in test [6], 78.7 µM (inactive); in test [17] it was > 100 µM (inactive); in test [7] it was > 100 µM (inactive). For the same compound, the GI50 in test [18] was 51.1 µM (inactive); in [9] it was > 100 µM (inactive); in [10], 27.7 µM (inactive); in test [11], 90.2 µM (inactive); in test [12], 72.4 µM (inactive); in test [13] it was 15.7 µM (inactive). Besides, the GI50 in test [14], in [15] and in [16] was > 100 µM (inactive) in each case.

As to `COc1ccc(-c2cc(O)c3ccc(C)nc3n2)cc1`, the GI50 in test [1] is > 100 µM (inactive); in [2], > 100 µM (inactive); in [3], > 100 µM (inactive); in test [4], greater than 100 µM; in [5], 97.7 µM (inactive); in test [6] it was > 100 µM (inactive). The GI50 in [17] is > 100 µM (inactive); in test [7], 49.4 µM (inactive); in [8], > 100 µM (inactive); in [18] it was > 100 µM (inactive); in test [10], > 100 µM (inactive); in test [19] it was > 100 µM (inactive). For the same compound, the GI50 in [12] was 55.7 µM (inactive); in test [13], > 100 µM (inactive); in test [14], > 100 µM (inactive); in [16] it was > 100 µM (inactive).

For `COc1cc(O)c2c(=O)cc(C3(O)C=CC(=O)C=C3)oc2c1`, the GI50 is < 0.0476 µM (active) in [2]; 0.463 µM (active) in test [3]; 0.0435 µM in test [4]; < 0.01 µM (active) in test [6]; 0.083 µM (active) in test [17]; 0.0815 µM (active) in test [7]. Moreover, the GI50 in test [8] is < 0.01 µM (active); in test [18] it was 0.664 µM (active); in test [9], 0.675 µM (active); in [10] it was < 0.0361 µM (active); in test [19] it was 0.0588 µM (active); in test [13] it was 0.428 µM (active). Further, the GI50 was 0.199 µM (active) in test [14], 0.0321 µM (active) in [15] and 0.489 µM (active) in test [16].

Turning to `COc1cccc2c(Nc3ccc(S(=O)(=O)Nc4ncccn4)cc3)c3ccc([N+](=O)[O-])cc3nc12`, the GI50 in test [1] is > 100 µM (inactive); in test [2], 4.8 µM (inactive); in [3] it was 60.7 µM (inactive); in test [4] it was 24.7 µM; in [5] it was 12.4 µM (inactive); in [6] it was 23 µM (inactive). The GI50 is 12.5 µM (inactive) in [17]; 14.3 µM (inactive) in [7]; 12.9 µM (inactive) in test [8]; 72.1 µM (inactive) in [18]; 27.7 µM (inactive) in [9]; 66.1 µM (inactive) in [10]. Further, the GI50 in test [11] is > 100 µM (inactive); in test [12], 8.67 µM (inactive); in [13], > 100 µM (inactive); in [14], > 100 µM (inactive); in test [15] it was 54.5 µM (inactive); in [16], > 100 µM (inactive).

With `NC(C/C=C/P(=O)(O)O)C(=O)O` (stereo unspecified), the GI50 in [1] is > 100 µM (inactive); in test [2], 2 µM (inactive); in test [3], > 100 µM (inactive); in test [4] it was greater than 100 µM; in test [5], > 100 µM (inactive); in [6] it was > 100 µM (inactive). In addition, the GI50 in test [17], in [7], in test [18], in test [9], in test [10] and in test [19] was > 100 µM (inactive) each time. Besides, the GI50 in test [11] is > 100 µM (inactive); in test [13] it was 58.1 µM (inactive); in test [14] it was > 100 µM (inactive); in test [15], > 100 µM (inactive); in test [16], > 100 µM (inactive).

As for `Cc1ccc(S(=O)(=O)OC[C@@H]2CO2)cc1`, the GI50 in test [1] was > 100 µM (inactive); in test [2], > 100 µM (inactive); in test [3] it was > 100 µM (inactive); in test [4] it was greater than 100 µM; in test [5] it was > 100 µM (inactive); in [6], > 100 µM (inactive). Further, the GI50 in test [17], in test [7], in test [8], in test [18], in test [9] and in test [11] was > 100 µM (inactive) throughout. The GI50 in [14], in [15] and in test [16] was > 100 µM (inactive) throughout.

With `CC1C2CC(CC2O)C1(C)C` (stereo unspecified), the GI50 in test [1], in [2], in test [3], in test [5], in test [6] and in test [17] was > 100 µM (inactive) each time. The GI50 in test [7], in test [8], in test [18], in [9], in test [10] and in [11] was > 100 µM (inactive) throughout. The GI50 in test [13], in [14], in [15] and in [16] was > 100 µM (inactive) in each case.

(Values after ChEMBL document CHEMBL1201862, “PubChem BioAssay data set” (2004).)
